Results taken from patent publication US20080206203A1, “Method for Inhibiting Tumor Metastasis” (Inflammation Research Center Company Ltd., priority 2004, published 2008).

Experiments:
[1] = test system: permeability of blood brain barrier and infiltration of white blood cells to cerebrospinal fluid caused by arachidonic acid; assay: arachidonic acid-induced central nervous system inflammation (CSF volume and WBC counts via subarachnoid cannula); assay type: in vivo, rat
Description: To investigate the role of leukotriene antagonists in the treatment of inflammation, a sensitive and quantitative method to measure inflammation for the central nervous system was developed. Important changes in the inflammatory process can be monitored, as both the permeability of blood brain barrier (BBB) and the infiltration of white blood cells (WBC) to cerebrospinal fluid (CSF) caused by arachidonic acid can be measured over time from the same experimental animal. In particular, the effect of the leukotriene C4 and D4 antagonist, pranlukast, was studied using this method. Changes in the inflammatory process of both the permeability of BBB and the infiltration of white blood cells (WBC) caused by administering arachidonic acid as a nociceptive stimulus were observed.
Male rats, approximately 350-400 g, were anesthetized with sodium pentobarbital at a dose of 50 mg/kg intraperitoneally (i.p.). Animals were then placed in a stereotaxic unit. Fur from the top of the head to neck was shaved. The study area was disinfected with 70% ethanol followed by a 10% providone-iodine solution. Skin and muscle over the cervical cord were dissected until cervical vertebrae were exposed. A hole was made using a 23 G3/4 needle passing through the dura via the cisterna magna. One end of a 2-3 mm PE10 cannula (0.011 “I.D., 0.007” thick, 0.024″ O.D., 6.5 cm long) was inserted into the subarachnoid space at the cervical cord so as to avoid damage to neuronal tissue (FIG. 3). The cannula was fixed with cyanoacrylic glue to the peripheral tissue. The other end of PE10 was used for administration of a nociceptive stimulus, such as arachidonic acid (AA; 3.25 μg/2 μl) and subsequently for collecting cerebrospinal fluid (CSF) every thirty minutes thereafter during the 11-hour experimental period. The cannula filled with CSF immediately after the cannulation.
Air was infused to inject AA to the subarachnoid space. The muscles and skin were closed with surgical staples. The rat was then removed from the stereotaxic unit and placed on a heat pad and continuously monitored.
In the interaction study, the leukotriene C4 and D4 antagonist, pranlukast, was administered (490 mg/kg, i.p.) thirty minutes before administration of arachidonic acid (AA). If the effects of the anesthesia appeared to be wearing off, an additional 0.05-0.1 ml pentobarbital (50 mg/ml, i.p.) dose was administered. If at any time during the experiment, the animal appeared to be in pain or distress, the study was immediately stopped and the animal was euthanized.
In the present study, the volume (μl) of cerebrospinal fluid (CSF) and white blood cell (WBC) counts in CSF was measured every thirty minutes for 11 hours from the same rat. One side of the cannula (PE10) was inserted into the subarachnoid space under pentobarbital anesthesia, avoiding neuronal damage (FIG. 3). If the brain tissue is damaged, the volume of CSF and WBC increases immediately without the administration of arachidonic acid. Since there are no WBC in the CSF in the normal rat, only rats that had no WBC in the CSF immediately after the cannulation were used. Another side of the cannula remained open and was used for the administration of nociceptive stimuli (arachidonic acid, LPS, dextran, etc.) and subsequently for collecting the CSF every thirty minutes during the experiment. The CSF volume was measured using a micropipette and WBC in the CSF were counted by means of a hemacytometer.

[2] = in vivo; cited from earlier work

SMILES	maximum CSF volume after administration ([1]; arachidonic acid 3.2 μg/2 μl into subarachnoid space, collected every thirty minutes, rat) [µL]	CSF volume maintained for every thirty minutes ([1]; arachidonic acid 3.2 μg/2 μl, during 4.0-5.0 hours post-administration) [µL]	time to peak / maximum CSF volume ([1]; arachidonic acid into subarachnoid space, rat) [h]	passage of the blood-brain barrier [2]
CCCCC/C=C\C/C=C\C/C=C\C/C=C\CCCC(=O)O [arachidonic acid, Arachidonic acid]	100 to 120	60 to 80	≤ 3.5	–
CC(C)(O)c1ccccc1CC[C@@H](SCC1(CC(=O)O)CC1)c1cccc(/C=C/c2ccc3ccc(Cl)cc3n2)c1 [montelukast]	–	–	–	does not pass, or passes the blood-brain barrier at most at a very minimal level
COc1cc(C(=O)NS(=O)(=O)c2ccccc2C)ccc1Cc1cn(C)c2ccc(NC(=O)OC3CCCC3)cc12 [zafirlukast]	–	–	–	does not pass, or passes the blood-brain barrier at most at a very minimal level
